Measured values taken from PMC12647645, “Structural interactions of BWC0977 with Klebsiella pneumoniae topoisomerase IV and biochemical basis of its broad-spectrum activity” (Communications Biology, 2025).
≈ marks a conversion by molar mass, not a printed value. Where “and” joins values, the source holds several entries; their conditions need not be identical. Equal entries are not always repeated.

Key:
[1] = target: E. coli GyrA D82N mutant gyrase (Escherichia coli, UniProt P0AES4+P0AES6, D82N); test: biochemical; assay type: biochemical; conditions: for Gyrase supercoiling inhibition response: GyrA D82N gyrase
A. baumannii ATCC 19606 [2] = test: In vitro spontaneous resistance frequency; assay type: cell-based
Procedure: (§1) Spontaneous resistance frequencies to BWC0977 were evaluated in E. coli ATCC 25922, P. aeruginosa ATCC 27853, and A. baumannii ATCC 19606. Mid-logarithmic phase cultures (~10^9 CFU/mL) were plated onto Luria-Bertani agar containing BWC0977 at 4×, 8×, and 16× the respective MICs. Plates were incubated at 37 °C for 24–36 h, and resistance frequencies were estimated by counting colony-forming units (CFUs) on the drug-containing plates. MICs of the isolated colonies were determined, and the gyrA, gyrB, parC, and parE genes were sequenced to assess for target-site mutations.

E. coli ATCC 25922 = test: In vitro spontaneous resistance frequency; assay type: cell-based
Procedure: as §1

[3] = target: S. aureus topoisomerase IV (Staphylococcus aureus, UniProt P0C1S7+P0C1U9); test: biochemical; design: Topo IV decatenation inhibition response: unit not given here
Procedure: Assays with P. aeruginosa topoisomerase IV (3 nM) were conducted in a similar buffer but with 50 mM HEPES-KOH (pH 7.9), 100 mM potassium glutamate, 6 mM magnesium acetate, 6 mM DTT, 1 mM ATP, 2 mM spermidine, and 50 μg/mL albumin. For S. aureus topoisomerase IV assay, the reactions contained 4 nM enzyme in an assay buffer composed of 50 mM Tris-HCl (pH 7.5), 5 mM MgCl₂, 5 mM DTT, 1.5 mM ATP, 350 mM potassium glutamate, and 0.05 mg/mL albumin. The procedures followed were consistent with those used in the supercoiling assays. Decatenated minicircles were resolved on 0.8% agarose gels, while the kDNA substrate remained in the wells. Gels were stained with 0.8 μg/mL ethidium bromide solution for 10 min, followed by destaining. DNA bands were visualized using a gel documentation system, and compound inhibition analysis was carried out using the same procedures described for the supercoiling assays.

S. aureus ATCC 29213 = test: MIC broth microdilution; assay type: cell-based; conditions: Staphylococcus aureus, ATCC29213
S. aureus gyrase = S. aureus gyrase (Staphylococcus aureus, UniProt P0A0K8+P20831); test: biochemical
E. faecium = tested on: E. faecium; design: method as in ref 6 (Hameed P et al., 2024); conditions: ref 6 (Hameed P et al., 2024); cited from earlier work
K. pneumoniae BAA 2782 = test: microbe, parasite or virus in culture; assay type: cell-based; conditions: Klebsiella pneumoniae, BAA2782
K. pneumoniae = conditions: ref 6 (Hameed P et al., 2024); cited from earlier work
E. faecalis ATCC 29212 = test: MIC broth microdilution; assay type: cell-based; conditions: Enterococcus faecalis, ATCC29212
A. baumannii ATCC 19606 [4] = test: MIC broth microdilution; assay type: cell-based; conditions: Acinetobacter baumannii
[5] = tested on: E. coli MG1655 (GyrA WT, ParC WT); test: microbe, parasite or virus in culture; assay type: cell-based; conditions: Escherichia coli
E. cloacae = conditions: ref 6 (Hameed P et al., 2024); cited from earlier work
E. coli BAA 2469 = test: microbe, parasite or virus in culture; assay type: cell-based; conditions: Escherichia coli, BAA2469
A. baumannii BAA 2885 = test: microbe, parasite or virus in culture; assay type: cell-based; conditions: Acinetobacter baumannii, BAA2885

Cn1c(=O)ccc2ccc(F)c(CCNC[C@H]3CN(c4cnc5c(n4)NC(=O)CO5)C(=O)O3)c21 [BWC0977]
IC50 ([1]; Fig. 6, read-out: IC50 D82N gyrase supercoiling): 8.07 µM
Gyrase supercoiling inhibition response ([1]; compound 4.444 µM, source data Fig 6A/6B, 4.444 µM): 46.06 and 47.14
Gyrase supercoiling inhibition response ([1]; compound 13.333 µM, source data Fig 6A/6B, 13.333 µM): 41.37 and 59.15 and 62.03
Gyrase supercoiling inhibition response ([1]; compound 40 µM, source data Fig 6A/6B, 40 µM): 73.59 and 74.94
Gyrase supercoiling inhibition response ([1]; compound 120 µM, source data Fig 6A/6B, 120 µM): 87.19 and 87.16
reduction in inhibition potency compared to wildtype gyrase ([1]; GyrA D82N vs WT): > 500 fold
inhibition at 4.444 µM ([1]; read-out: Gyrase supercoiling inhibition response, GyrA D82N gyrase, compound 4.444 µM, source data Fig 6A/6B): 30.7%
inhibition at 40 µM ([1]; read-out: Gyrase supercoiling inhibition response, GyrA D82N gyrase, compound 40 µM, source data Fig 6A/6B): 55.7%
inhibition at 120 µM ([1]; read-out: Gyrase supercoiling inhibition response, GyrA D82N gyrase, compound 120 µM, source data Fig 6A/6B): 78.8%
number of resistant mutant colonies (A. baumannii ATCC 19606 [2]; 0.6 μg/mL (4× MIC)): five
resistance frequency (A. baumannii ATCC 19606 [2]; 4× MIC): less than 1 × 10^−9
MIC increase of resistant colonies (A. baumannii ATCC 19606 [2]; colonies selected at 4× MIC of the same compound): four-fold
resistance frequency (E. coli ATCC 25922; 4× MIC): less than 1 × 10^−9
sensitivity of ciprofloxacin-resistant mutants (GyrA S83L or D87Y) (E. coli ATCC 25922; mutants selected with ciprofloxacin 0.05 μg/mL): remained sensitive
IC50 [3]: 110 nM
inhibition at 0.0037 µM ([3]; S. aureus topo IV, compound 0.0037 μM, source data Fig 2C, read-out: Topo IV decatenation inhibition response): 0%
Topo IV decatenation inhibition response ([3]; S. aureus topo IV, compound 0.0988 μM, source data Fig 2C, listed as 977, 0.0988 µM): 31.67 and 43.21 and 56.17
Topo IV decatenation inhibition response ([3]; S. aureus topo IV, compound 0.2963 μM, source data Fig 2C, listed as 977, 0.2963 µM): 76.23 and 76.66
inhibition at 0.2963 µM ([3]; S. aureus topo IV, compound 0.2963 μM, source data Fig 2C, read-out: Topo IV decatenation inhibition response): 67%
Topo IV decatenation inhibition response ([3]; S. aureus topo IV, compound 0.8889 μM, source data Fig 2C, listed as 977, 0.8889 µM): 92.92 and 90.9
inhibition at 0.8889 µM ([3]; S. aureus topo IV, compound 0.8889 μM, source data Fig 2C, read-out: Topo IV decatenation inhibition response): 89.7%
inhibition at 2.6667 µM ([3]; S. aureus topo IV, compound 2.6667 μM, source data Fig 2C, read-out: Topo IV decatenation inhibition response): 98.1%
Topo IV decatenation inhibition response ([3]; S. aureus topo IV, compound 8 μM, source data Fig 2C, listed as 977, 8 µM): 99.9 and 99.56
inhibition at 8 µM ([3]; S. aureus topo IV, compound 8 μM, source data Fig 2C, read-out: Topo IV decatenation inhibition response): 99.7%
MIC (S. aureus ATCC 29213): 7 ng/mL (≈ 0.0149 µM)
Gyrase supercoiling inhibition response (S. aureus gyrase; S. aureus gyrase, compound 0.0002 μM, source data Fig 2C, listed as 977, 0.0002 µM): 1.69 and 1.99
inhibition at 0.0002 µM (S. aureus gyrase; S. aureus gyrase, compound 0.0002 μM, source data Fig 2C, read-out: Gyrase supercoiling inhibition response): 2.89%
Gyrase supercoiling inhibition response (S. aureus gyrase; S. aureus gyrase, compound 0.001 μM, source data Fig 2C, listed as 977, 0.001 µM): 21.39 and 19.98
inhibition at 0.001 µM (S. aureus gyrase; S. aureus gyrase, compound 0.001 μM, source data Fig 2C, read-out: Gyrase supercoiling inhibition response): 26.9%
Gyrase supercoiling inhibition response (S. aureus gyrase; S. aureus gyrase, compound 0.004 μM, source data Fig 2C, listed as 977, 0.004 µM): 39.52 and 42.6
inhibition at 0.004 µM (S. aureus gyrase; S. aureus gyrase, compound 0.004 μM, source data Fig 2C, read-out: Gyrase supercoiling inhibition response): 46.8%
Gyrase supercoiling inhibition response (S. aureus gyrase; S. aureus gyrase, compound 0.012 μM, source data Fig 2C, listed as 977, 0.012 µM): 60.4 and 63.65
inhibition at 0.012 µM (S. aureus gyrase; S. aureus gyrase, compound 0.012 μM, source data Fig 2C, read-out: Gyrase supercoiling inhibition response): 57.6%
Gyrase supercoiling inhibition response (S. aureus gyrase; S. aureus gyrase, compound 0.037 μM, source data Fig 2C, listed as 977, 0.037 µM): 62.46 and 64.07
inhibition at 0.037 µM (S. aureus gyrase; S. aureus gyrase, compound 0.037 μM, source data Fig 2C, read-out: Gyrase supercoiling inhibition response): 66.3%
Gyrase supercoiling inhibition response (S. aureus gyrase; S. aureus gyrase, compound 0.111 μM, source data Fig 2C, listed as 977, 0.111 µM): 73.28 and 76.49
inhibition at 0.111 µM (S. aureus gyrase; S. aureus gyrase, compound 0.111 μM, source data Fig 2C, read-out: Gyrase supercoiling inhibition response): 70.2%
Gyrase supercoiling inhibition response (S. aureus gyrase; S. aureus gyrase, compound 0.333 μM, source data Fig 2C, listed as 977, 0.333 µM): 87.57 and 81.68
inhibition at 0.333 µM (S. aureus gyrase; S. aureus gyrase, compound 0.333 μM, source data Fig 2C, read-out: Gyrase supercoiling inhibition response): 84%
Gyrase supercoiling inhibition response (S. aureus gyrase; S. aureus gyrase, compound 1 μM, source data Fig 2C, listed as 977, 1 µM): 89.66 and 78.1
inhibition at 1 µM (S. aureus gyrase; S. aureus gyrase, compound 1 μM, source data Fig 2C, read-out: Gyrase supercoiling inhibition response): 91.1%
Gyrase supercoiling inhibition response (S. aureus gyrase; S. aureus gyrase, compound 3 μM, source data Fig 2C, listed as 977, 3 µM): 98.25 and 99.54
inhibition at 3 µM (S. aureus gyrase; S. aureus gyrase, compound 3 μM, source data Fig 2C, read-out: Gyrase supercoiling inhibition response): 94.8%
IC50 (S. aureus gyrase; Supplementary Fig 1G): 9 nM
MIC90 against diverse global isolates (E. faecium): 0.12 µg/mL (≈ 0.256 µM)
MIC (K. pneumoniae BAA 2782): 0.125 µg/mL (≈ 0.267 µM)
MIC90 against diverse global isolates (K. pneumoniae): 2 µg/mL (≈ 4.27 µM)
MIC (E. faecalis ATCC 29212): 0.03 µg/mL (≈ 0.064 µM)
MIC (A. baumannii ATCC 19606 [4]; ATCC19606): 0.125 µg/mL (≈ 0.267 µM)
MIC90 (A. baumannii ATCC 19606 [4]; ATCC19606, read-out: MIC 90 in (μg/mL), A. baumannii ATCC 19606 (WT)): 0.15 µg/mL (≈ 0.32 µM)
MIC [5]: 0.03 µg/mL (≈ 0.064 µM)
MIC90 against diverse global isolates (E. cloacae): 2 µg/mL (≈ 4.27 µM)
MIC (E. coli BAA 2469): 0.01 µg/mL (≈ 0.0213 µM)
MIC (A. baumannii BAA 2885): 0.5 µg/mL (≈ 1.07 µM)
